Measurements: patent publication US20150018237A1, “MEANS AND METHODS FOR ASSESSING BONE DISORDERS” (BASF SE, priority 2012, published 2015)
Like-named read-outs stand apart in the source and are kept apart here. Marks after values point to notes of the source that are not given here. Each block holds one compound with its values, some of them ahead of it.

What was measured:
[1] = test system: rats; conditions: rat, in vivo
Description: (§1) A group of each 5 male and female rats was dosed once daily with the indicated compounds (see Table 10, below for compounds, applied doses and administeration details) over 28 days.
(§2) Each dose group in the studies consisted of five rats per sex. Additional groups of each 5 male and female animals served as controls. Before starting the treatment period, animals, which were 62-64 days old when supplied, were acclimatized to the housing and environmental conditions for 7 days. All animals of the animal population were kept under the same constant temperature (20-24±3° C.) and the same constant humidity (30-70%). The animals of the animal population were fed ad libitum. The food to be used was essentially free of chemical or microbial contaminants. Drinking water was also offered ad libitum. Accordingly, the water was free of chemical and microbial contaminants as laid down in the European Drinking Water Directive 98/83/EG. The illumination period was 12 hours light followed by 12 hours darkness (12 hours light, from 6:00 to 18:00, and 12 hours darkness, from 18:00 to 6:00). The studies were performed in an AAALAC-approved laboratory in accordance with the German Animal Welfare Act and the European Council Directive 86/609/EE. The test system was arranged according to the OECD 407 guideline for the testing of chemicals for repeated dose 28-day oral toxicity study in rodents.
(§3) In the morning of day 7, 14, and 28, blood was taken from the retroorbital venous plexus from fasted anaesthetized animals. From each animal, 1 ml of blood was collected with EDTA as anticoagulant. The samples were centrifuged for generation of plasma. All plasma samples were covered with a N2 atmosphere and then stored at −80° C. until analysis.
(§4) For mass spectrometry-based metabolite profiling analyses plasma samples were extracted and a polar and a non-polar (lipid) fraction was obtained. For GC-MS analysis, the non-polar fraction was treated with methanol under acidic conditions to yield the fatty acid methyl esters. Both fractions were further derivatised with O-methyl-hydroxyamine hydrochloride and pyridine to convert Oxo-groups to O-methyloximes and subsequently with a silylating agent before analysis. In LC-MS analysis, both fractions were reconstituted in appropriate solvent mixtures. HPLC was performed by gradient elution on reversed phase separation columns. Mass spectrometric detection which allows target and high sensitivity MRM (Multiple Reaction Monitoring) profiling in parallel to a full screen analysis was applied as described in WO2003073464.
(§5) Steroids and their metabolites were measured by online SPE-LC-MS (Solid phase extraction-LC-MS).
(§6) Following comprehensive analytical validation steps, the data for each analyte were normalized against data from pool samples. These samples were run in parallel through the whole process to account for process variability. The significance of treatment group values specific for sex, treatment duration and metabolite was determined by comparing means of the treated groups to the means of the respective untreated control groups using WELCH-test and quantified with treatment ratios versus control and p-values.

[2] = test system: rats; assay: Plasma metabolite profiling (GC-MS, LC-MS) in rats dosed once daily over 28 days, treatment ratios versus control
Description: as §1, §2, §3, §4, §5, §6

[3] = female rats, day 28, high dose, Table 1a up-regulation
[4] = female rats, day 28, high dose, Table 1b down-regulation
[5] = male rats, day 28, high dose, Table 1c up-regulation
[6] = male rats, day 28, high dose, Table 1d down-regulation

Compound: O=C([O-])[O-].[Ca+2] [Calcium carbonate]
3-Hydroxybutyrate, plasma, ratio versus control [1]: 1.09* | 4-Hydroxyphenylpyruvate, plasma, ratio versus control [1]: 0.23* | 5-Oxoproline, plasma, ratio versus control [1]: 0.87* | 16-Methylheptadecanoic acid, plasma, ratio versus control [1]: 0.66* | 17-Methyloctadecanoic acid, plasma, ratio versus control [1]: 0.92* | Alanine, plasma, ratio versus control [1]: 0.79* | Coenzyme Q9, plasma, ratio versus control [1]: 0.72* | Creatine, plasma, ratio versus control [1]: 0.48* | Creatinine, plasma, ratio versus control [1]: 0.43* | DAG (C18:1, C18:2), plasma, ratio versus control [1]: 0.87* | Eicosaenoic acid (C20:1) No 02, plasma, ratio versus control [1]: 1.3* | Glucose, plasma, ratio versus control [1]: 0.93* | Glycerol, lipid fraction, plasma, ratio versus control [1]: 0.66* | Heptadecanoic acid (C17:0), plasma, ratio versus control [1]: 0.76* | Hippuric acid, plasma, ratio versus control [1]: 0.71* | Lactate, plasma, ratio versus control [1]: 0.95* | Linoleic acid (C18:cis[9, 12]2), plasma, ratio versus control [1]: 0.67* | Linolenic acid (C18:cis[9, 12, 15]3), plasma, ratio versus control [1]: 0.81* | Lysophosphatidylcholine (C17:0), plasma, ratio versus control [1]: 0.82* | Malate, plasma, ratio versus control [1]: 0.54* | Phenylalanine, plasma, ratio versus control [1]: 0.93* | Phosphatidylcholine (C16:0, C16:0), plasma, ratio versus control [1]: 1.06* | Phosphatidylcholine (C18:0, C20:4), plasma, ratio versus control [1]: 1.02* | Pyruvate, plasma, ratio versus control [1]: 0.77* | Sphingomyelin (d18:2, C16:0), plasma, ratio versus control [1]: 1.11* | TAG (C18:1, C18:2), plasma, ratio versus control [1]: 0.75* | TAG (C18:2, C18:2), plasma, ratio versus control [1]: 0.74* | TAG (C18:2, C18:3), plasma, ratio versus control [1]: 0.64* | TAG (DAG-Fragment), plasma, ratio versus control [1]: 0.72* | TAG No 01, plasma, ratio versus control [1]: 0.55* | TAG No 05, plasma, ratio versus control [1]: 0.71* | TAG No 07, plasma, ratio versus control [1]: 0.71* | TAG No 059, plasma, ratio versus control [1]: 0.68* | Threonic acid, plasma, ratio versus control [1]: 0.86* | Urea, plasma, ratio versus control [1]: 1.15* | gamma-Linolenic acid (C18:cis[6, 9, 12]3), plasma, ratio versus control [1]: 0.7*

3-Hydroxybutyrate, plasma, ratio versus control [2, 3]: 1.32* | Coenzyme Q10, plasma, ratio versus control [2, 3]: 1.03* | Eicosaenoic acid (C20:1) No 02, plasma, ratio versus control [2, 3]: 3.35* | Phosphate (inorganic and organic phosphates), plasma, ratio versus control [2, 3]: 1.31* | Phosphatidylcholine (C18:0, C20:4), plasma, ratio versus control [2, 3]: 1.05* | Sphingomyelin (d18:2, C16:0), plasma, ratio versus control [2, 3]: 1.11* | Urea, plasma, ratio versus control [2, 3]: 1.36* | myo-Inositol-2-phosphate, plasma, ratio versus control [2, 3]: 1.27* | 4-Hydroxyphenylpyruvate, plasma, ratio versus control [2, 4]: 0.63* | 18-Hydroxy-11-deoxycorticosterone, plasma, ratio versus control [2, 4]: 0.85* | Alanine, plasma, ratio versus control [2, 4]: 0.75* | Creatine, plasma, ratio versus control [2, 4]: 0.92* | Creatinine, plasma, ratio versus control [2, 4]: 0.58* | Glucose, plasma, ratio versus control [2, 4]: 0.95* | Lysophosphatidylcholine (C17:0), plasma, ratio versus control [2, 4]: 0.91* | Methionine, plasma, ratio versus control [2, 4]: 0.85* | Phenylalanine, plasma, ratio versus control [2, 4]: 0.88* | Threonic acid, plasma, ratio versus control [2, 4]: 0.75* | Glycine, plasma, ratio versus control [2, 5]: 0.86 | Phosphate (inorganic and organic phosphates), plasma, ratio versus control [2, 5]: 1.35* | Phosphatidylcholine (C16:0, C16:0), plasma, ratio versus control [2, 5]: 1.24* | myo-Inositol-2-phosphate, plasma, ratio versus control [2, 5]: 1.41* | 5-Oxoproline, plasma, ratio versus control [2, 6]: 0.94* | 16-Methylheptadecanoic acid, plasma, ratio versus control [2, 6]: 0.59* | 17-Methyloctadecanoic acid, plasma, ratio versus control [2, 6]: 0.65* | 18-Hydroxy-11-deoxycorticosterone, plasma, ratio versus control [2, 6]: 0.24* | Alanine, plasma, ratio versus control [2, 6]: 0.78* | Coenzyme Q9, plasma, ratio versus control [2, 6]: 0.83* | Coenzyme Q10, plasma, ratio versus control [2, 6]: 0.74* | DAG (C18:1, C18:2), plasma, ratio versus control [2, 6]: 0.63* | Glycerol, lipid fraction, plasma, ratio versus control [2, 6]: 0.86* | Glycine, plasma, ratio versus control [2, 6]: 0.86* | Heptadecanoic acid (C17:0), plasma, ratio versus control [2, 6]: 0.77* | Hippuric acid, plasma, ratio versus control [2, 6]: 0.48* | Lactate, plasma, ratio versus control [2, 6]: 0.7* | Linoleic acid (C18:cis[9, 12]2), plasma, ratio versus control [2, 6]: 0.82* | Linolenic acid (C18:cis[9, 12, 15]3), plasma, ratio versus control [2, 6]: 0.61* | Malate, plasma, ratio versus control [2, 6]: 0.8* | Methionine, plasma, ratio versus control [2, 6]: 0.88* | Pyruvate, plasma, ratio versus control [2, 6]: 0.76* | TAG (C18:1, C18:2), plasma, ratio versus control [2, 6]: 0.7* | TAG (C18:2, C18:2), plasma, ratio versus control [2, 6]: 0.6* | TAG (C18:2, C18:3), plasma, ratio versus control [2, 6]: 0.78* | TAG (DAG-Fragment), plasma, ratio versus control [2, 6]: 0.7* | TAG No 01, plasma, ratio versus control [2, 6]: 0.66* | TAG No 05, plasma, ratio versus control [2, 6]: 0.68* | TAG No 07, plasma, ratio versus control [2, 6]: 0.78* | TAG No 059, plasma, ratio versus control [2, 6]: 0.65* | gamma-Linolenic acid (C18:cis[6, 9, 12]3), plasma, ratio versus control [2, 6]: 0.98
Compound: Calcitonin (Salmon)

Compound: [O-][Cl+3]([O-])([O-])O [Sodium perchlorate]
Isoleucine, plasma, ratio versus control ([2]; male rats, day 7, high dose, Table 2a up-regulation): 0.97 | Isoleucine, plasma, ratio versus control ([2]; male rats, day 28, high dose, Table 2a up-regulation): 1.37 * | Isoleucine, plasma, ratio versus control ([2]; male rats, day 28, high dose, Table 2c up-regulation): 1.37*
